According to patent US8952024B2, “Herbicidal pyrimidone derivatives” (E I du Pont de Nemours and Company, priority 2009, dated 2015):

Key:
Type in all cases: in vivo
[1] = tested on: Italian ryegrass (Lolium multiflorum); assay: Test B pre-/postemergence plant response
Method in brief: (§1)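 Response scores were assigned visually after 13 to 15 days in a greenhouse, comparing treated pots with controls on a 0–100 scale where 100 denotes complete control. Preemergence treatments went onto freshly seeded loam/sand soil; postemergence treatments onto plants 2 to 18 cm tall.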

[2] = tested on: galium (catchweed bedstraw, Galium aparine); assay: Test B pre-/postemergence plant response; conditions: Preemergence
Method in brief: as §1

[3] = tested on: giant foxtail (Setaria faberii); assay: Test B pre-/postemergence plant response
Method in brief: as §1

[4] = tested on: nightshade (eastern black nightshade, Solanum ptycanthum); assay: Test B pre-/postemergence plant response; conditions: Preemergence
Method in brief: as §1

[5] = tested on: ragweed (common ragweed, Ambrosia elatior); assay: Test B pre-/postemergence plant response
Method in brief: as §1

[6] = tested on: sunflower (common oilseed sunflower, Helianthus annuus); assay: Test B pre-/postemergence plant response; conditions: Preemergence
Method in brief: as §1

[7] = tested on: canarygrass (Phalaris minor); assay: Test B postemergence plant response
Method in brief: (§2)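 Plants grown in peat/vermiculite medium were sprayed postemergence at 2–18 cm height (1- to 4-leaf stage). After 13–15 days in the greenhouse, response was rated visually against untreated controls on a 0–100 scale (0 no effect, 100 complete control).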

[8] = tested on: chickweed (Stellaria media); assay: Test B postemergence plant response
Method in brief: as §2

[9] = tested on: windgrass (Apera spica-venti); assay: Test B postemergence plant response
Method in brief: as §2

[10] = tested on: winter barley (Hordeum vulgare); assay: Test B postemergence plant response
Method in brief: as §2

[11] = tested on: barnyardgrass (Echinochloa crus-galli); assay: Test B flooded paddy test; conditions: for Plant response rating, Barnyardgrass: Flood (flooded paddy test), 13 to 15 days
Method in brief: (§3)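 Plants were grown to the 2-leaf stage, then pots were flooded to 3 cm above the soil and compounds were applied directly into the paddy water. That depth was held throughout. After 13 to 15 days in a greenhouse, injury was visually rated against controls on a 0–100 scale.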

[12] = tested on: ducksalad (Heteranthera limosa); assay: Test B flooded paddy test; conditions: for Plant response rating, Ducksalad: Flood (flooded paddy test), 13 to 15 days
Method in brief: as §3

[13] = tested on: rice (Oryza sativa); assay: Test B flooded paddy test; conditions: for Plant response rating, Rice: Flood (flooded paddy test), 13 to 15 days
Method in brief: as §3

[14] = tested on: umbrella sedge (Cyperus difformis); assay: Test B flooded paddy test; conditions: for Plant response rating, Sedge, Umbrella: Flood (flooded paddy test), 13 to 15 days
Method in brief: as §3

[15] = 31 g ai/ha, postemergence, scale 0 to 100, 0 is no effect, 100 is complete control
[16] = Postemergence, 62 g ai/ha, scale 0 (no effect) to 100 (complete control), 13 to 15 days
[17] = Postemergence, 125 g ai/ha, visual rating after 13 to 15 days, scale 0 (no effect) to 100 (complete control)
[18] = Postemergence, 250 g ai/ha, scale 0 to 100 (0 no effect, 100 complete control)
[19] = Preemergence, 31 g ai/ha, scale 0 to 100 (0 no effect, 100 complete control)
[20] = Preemergence, 62 g ai/ha, scale 0 to 100, 0 no effect, 100 complete control
[21] = Preemergence, 125 g ai/ha, scale 0 to 100, 0 no effect, 100 complete control
[22] = 31 g ai/ha, scale 0 to 100 (0 no effect, 100 complete control)
[23] = 62 g ai/ha, scale 0 to 100, 0 no effect, 100 complete control
[24] = 125 g ai/ha, scale 0 to 100, 0 no effect, 100 complete control
[25] = 250 g ai/ha, flooded paddy test, visual rating on 0 to 100 scale (0 no effect, 100 complete control) after 13 to 15 days
[26] = 31 g ai/ha, scale of 0 to 100 where 0 is no effect and 100 is complete control
[27] = 62 g ai/ha, scale of 0 to 100 where 0 is no effect and 100 is complete control
[28] = 125 g ai/ha, scale 0 to 100, 0 is no effect, 100 is complete control

Q: With Cc1cccc(-n2c(-c3ccccc3)ncc(C(=O)C3=C(O)CCCC3=O)c2=O)c1F [Compound 58] as the molecule, how does the “Plant response rating, Ryegrass, Italian” value [1, 15] read?
A: 0

Q: What about the “Plant response rating, Ryegrass, Italian” value [1, 16] of the same molecule?
A: 0

Q: What about the “Plant response rating, Ryegrass, Italian” value [1, 17] of the same molecule?
A: 30

Q: What about the “Plant response rating, Ryegrass, Italian” value [1, 18] of the same molecule?
A: 70

Q: What about the “Plant response rating, Ryegrass, Italian” value [1, 19] of the same molecule?
A: 0

Q: And the “Plant response rating, Ryegrass, Italian” value [1, 20]?
A: 0

Q: What about the “Plant response rating, Ryegrass, Italian” value [1, 21] of the same molecule?
A: 0

Q: What about the “Plant response rating, Galium” value ([2]; 250 g ai/ha, 0 to 100 scale) of the same molecule?
A: 80

Q: And the “Plant response rating, Galium” value [2, 22]?
A: 0

Q: What about the “Plant response rating, Galium” value [2, 23] of the same molecule?
A: 0

Q: What about the “Plant response rating, Galium” value [2, 24] of the same molecule?
A: 30

Q: And the “Plant response rating, Foxtail, Giant” value [3, 15]?
A: 75

Q: And the “Plant response rating, Foxtail, Giant” value ([3]; 250 g ai/ha, Preemergence, 0 to 100 scale)?
A: 75

Q: What about the “Plant response rating, Foxtail, Giant” value [3, 16] of the same molecule?
A: 85

Q: What about the “Plant response rating, Foxtail, Giant” value [3, 17] of the same molecule?
A: 90

Q: And the “Plant response rating, Foxtail, Giant” value [3, 18]?
A: 98

Q: And the “Plant response rating, Foxtail, Giant” value [3, 19]?
A: 10

Q: What about the “Plant response rating, Foxtail, Giant” value [3, 20] of the same molecule?
A: 20

Q: What about the “Plant response rating, Foxtail, Giant” value [3, 21] of the same molecule?
A: 75

Q: What about the “Plant response rating, Nightshade” value [4, 22] of the same molecule?
A: 90

Q: And the “Plant response rating, Nightshade” value [4, 23]?
A: 98

Q: What about the “Plant response rating, Nightshade” value [4, 24] of the same molecule?
A: 98

Q: And the “Plant response rating, Ragweed” value [5, 15]?
A: 80

Q: And the “Plant response rating, Ragweed” value [5, 16]?
A: 85

Q: And the “Plant response rating, Ragweed” value [5, 17]?
A: 90

Q: What about the “Plant response rating, Ragweed” value [5, 18] of the same molecule?
A: 98

Q: What about the “Plant response rating, Ragweed” value [5, 19] of the same molecule?
A: 20

Q: What about the “Plant response rating, Ragweed” value [5, 20] of the same molecule?
A: 75

Q: And the “Plant response rating, Ragweed” value [5, 21]?
A: 85

Q: And the “Plant response rating, Sunflower” value [6, 22]?
A: 0

Q: And the “Plant response rating, Sunflower” value [6, 23]?
A: 55

Q: What about the “Plant response rating, Sunflower” value [6, 24] of the same molecule?
A: 65

Q: What about the “Plant response rating, Canarygrass” value [7, 15] of the same molecule?
A: 60

Q: And the “Plant response rating, Canarygrass” value [7, 16]?
A: 60

Q: What about the “Plant response rating, Canarygrass” value [7, 17] of the same molecule?
A: 80

Q: What about the “Plant response rating, Canarygrass” value [7, 18] of the same molecule?
A: 85

Q: What about the “Plant response rating, Chickweed” value [8, 15] of the same molecule?
A: 70

Q: What about the “Plant response rating, Chickweed” value [8, 16] of the same molecule?
A: 80

Q: And the “Plant response rating, Chickweed” value [8, 17]?
A: 90

Q: What about the “Plant response rating, Chickweed” value [8, 18] of the same molecule?
A: 90

Q: What about the “Plant response rating, Windgrass” value [9, 15] of the same molecule?
A: 35

Q: And the “Plant response rating, Windgrass” value [9, 16]?
A: 50

Q: What about the “Plant response rating, Windgrass” value [9, 17] of the same molecule?
A: 60

Q: What about the “Plant response rating, Windgrass” value [9, 18] of the same molecule?
A: 70

Q: What about the “Plant response rating, Barley” value [10, 15] of the same molecule?
A: 5

Q: And the “Plant response rating, Barley” value [10, 16]?
A: 5

Q: And the “Plant response rating, Barley” value [10, 17]?
A: 5

Q: What about the “Plant response rating, Barley” value [10, 18] of the same molecule?
A: 10

Q: And the “Plant response rating, Flood, Barnyardgrass” value [11, 25]?
A: 0

Q: What about the “Plant response rating, Barnyardgrass” value [11, 26] of the same molecule?
A: 0

Q: What about the “Plant response rating, Barnyardgrass” value [11, 27] of the same molecule?
A: 0

Q: What about the “Plant response rating, Barnyardgrass” value [11, 28] of the same molecule?
A: 0

Q: What about the “Plant response rating, Flood, Ducksalad” value [12, 25] of the same molecule?
A: 0

Q: And the “Plant response rating, Ducksalad” value [12, 26]?
A: 0

Q: And the “Plant response rating, Ducksalad” value [12, 27]?
A: 0

Q: What about the “Plant response rating, Ducksalad” value [12, 28] of the same molecule?
A: 0

Q: What about the “Plant response rating, Flood, Rice” value [13, 25] of the same molecule?
A: 0

Q: What about the “Plant response rating, Rice” value [13, 26] of the same molecule?
A: 0

Q: What about the “Plant response rating, Rice” value [13, 27] of the same molecule?
A: 0

Q: What about the “Plant response rating, Rice” value [13, 28] of the same molecule?
A: 0

Q: What about the “Plant response rating, Flood, Sedge, Umbrella” value [14, 25] of the same molecule?
A: 0

Q: And the “Plant response rating, Sedge, Umbrella” value [14, 26]?
A: 0

Q: And the “Plant response rating, Sedge, Umbrella” value [14, 27]?
A: 0

Q: And the “Plant response rating, Sedge, Umbrella” value [14, 28]?
A: 0
